Data: US7491507B2, “Process for preparing peptides with anti-hypertensive properties” (Chr. Hansen A/S, priority 2002, dated 2009)

Tested on: Spontaneously Hypertensive Rats (SHR)
Test: In vivo test of anti-hypertensive properties: systolic blood pressure by plethysmography in conscious SHR after gavage
Design: species or system rat
Conditions: gavage 2 ml of product (Enalapril 20 mg/kg in milk)
Procedure: Strains were streaked on MRS agar and incubated anaerobically for 48 h at 37° C. A single colony was picked, inoculated into MRS broth and grown overnight at 37° C. Stock cultures were prepared from this overnight culture and were stored at −80° C. in 20% glycerol. The strains were precultivated in milk overnight and inoculated 1% (v/v) in fresh milk for the fermentation.
The milk was fermented with the strains of single or mixed cultures for 16 hours with an inoculation level of 1% (v/v). The total product was freeze-dried. A second fermentation, with the same conditions as the first one, was centrifuged. The pellet was discarded and the whey was filtered through a […] filter and frozen. The whey was used to solubilize the freeze-dried powder to concentrate it with a factor 5 before feeding the rats.
Spontaneously Hypertensive Rats (SHR) was obtained from IFFA CREDO (a Charles River company), Lyon, France. […]
Systolic blood pressure was determined by plethysmography in conscious SHR before as well as […] after gavages, at the different times described below. […]
Systolic blood pressure of Group 1 was determined parallel to those of groups 2 and 3 and serves as control.
The day of the gavage systolic blood pressure was determined before as well as 6 and 24 hours after gavage.

With `CCOC(=O)[C@H](CCc1ccccc1)N[C@@H](C)C(=O)N1CCC[C@H]1C(=O)O` [Enalapril] the “variation of systolic blood pressure” value (5 hours after administration) was −30 and the “variation of systolic blood pressure” value (24 hours after administration) was −17.
